According to patent publication US20190151495A1, “Composite biomaterials with controlled release of active ingredient, preparation process and uses” (CENTRE NATIONAL DE LA RECHERCHE SCIENTIFIQUE, priority 2016, published 2019):

Assays:
[1] = molecular target: T1, mineralocorticoid receptor (Rattus norvegicus, UniProt P22199); assay: Biological activity of spironolactone: luciferase reporter in H9C2 cells incubated with aldosterone; assay type: cell-based; details: FIG. 12
T1 construct: H9C2 cells are myoblasts genetically modified by the incorporation of the reporter gene encoding luciferase; endogenous in cells; host or cells: H9C2 myoblasts carrying a luciferase reporter
T1 sequence (P22199 1-981): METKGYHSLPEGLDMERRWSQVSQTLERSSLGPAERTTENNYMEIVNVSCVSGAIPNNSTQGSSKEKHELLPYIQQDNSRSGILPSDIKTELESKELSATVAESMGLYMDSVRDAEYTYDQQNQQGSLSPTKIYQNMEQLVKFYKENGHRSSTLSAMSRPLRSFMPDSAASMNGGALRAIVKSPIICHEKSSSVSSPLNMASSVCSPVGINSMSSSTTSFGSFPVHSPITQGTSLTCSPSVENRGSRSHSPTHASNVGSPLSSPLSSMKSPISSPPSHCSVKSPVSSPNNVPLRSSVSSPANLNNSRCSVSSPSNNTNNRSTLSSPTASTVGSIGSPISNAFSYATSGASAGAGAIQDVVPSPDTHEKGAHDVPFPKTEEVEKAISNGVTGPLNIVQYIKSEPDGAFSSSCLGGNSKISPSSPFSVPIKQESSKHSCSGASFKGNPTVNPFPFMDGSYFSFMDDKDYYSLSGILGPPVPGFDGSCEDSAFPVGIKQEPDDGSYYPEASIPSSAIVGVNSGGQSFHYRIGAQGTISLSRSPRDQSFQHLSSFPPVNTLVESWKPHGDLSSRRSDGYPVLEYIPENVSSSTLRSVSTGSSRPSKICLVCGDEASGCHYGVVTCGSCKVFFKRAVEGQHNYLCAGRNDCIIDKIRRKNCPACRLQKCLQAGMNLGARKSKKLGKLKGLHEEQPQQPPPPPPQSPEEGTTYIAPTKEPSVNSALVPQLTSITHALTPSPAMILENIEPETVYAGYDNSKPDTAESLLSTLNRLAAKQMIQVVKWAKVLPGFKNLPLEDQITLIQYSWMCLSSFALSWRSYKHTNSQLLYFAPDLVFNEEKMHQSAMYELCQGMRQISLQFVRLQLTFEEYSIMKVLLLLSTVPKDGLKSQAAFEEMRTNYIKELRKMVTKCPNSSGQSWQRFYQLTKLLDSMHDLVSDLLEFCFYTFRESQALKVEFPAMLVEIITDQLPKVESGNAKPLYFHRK
Procedure: The biological activity of the spironolactone was measured in the following manner: H9C2 cells are myoblasts genetically modified by the incorporation of the reporter gene encoding luciferase downstream of the promoter having sequences binding the complex of aldosterone plus its receptor. When aldosterone was added, luciferase was expressed and detected by bioluminescence. […] This inhibition reports the biological activity of the spironolactone on H9C2s incubated with aldosterone. The spironolactone activity was measured directly on the spironolactone releasing liquid originating from the different types of hydrogels tested.
FIG. 12 represents the biological activity of the spironolactone released from a hydrogel after 15 days of incubation in PBS (with changing of the buffer every day); when the following are used:
(2) a mixture of a material MB-S with aldosterone at approximately 10^−8 M,
(3) a mixture of a material MC-S with aldosterone at approximately 10^−8 M,
(4) a mixture of a material MA-S with aldosterone at approximately 10^−8 M,
(5) a negative control (well containing the culture medium without aldosterone),
(6) aldosterone at approximately 10^−8 M, and
(7) a mixture of aldosterone at approximately 10^−8 M and spironolactone at approximately 10^−6 M.

[2] = system: primary human dermal fibroblasts; assay: Toxicity of the materials: cell viability by metabolic test (AlamarBlue Assay); assay type: cell-based; details: FIG. 11
Procedure: The toxicity of the materials was measured as follows: primary human dermal fibroblasts were seeded onto a culture plate. The composite hydrogels were then incubated with the fibroblasts for 1 or 6 days. The cell viability was measured by a metabolic test (AlamarBlue Assay®) and compared with that of control fibroblasts (without addition of composite hydrogel).
FIG. 11 represents the toxicity of the composite biomaterial of the invention M1-S on cells (fibroblasts) and by way of comparison: • the toxicity of a dry collagen material impregnated with spironolactone MB-S obtained from the dehydrated pure collagen material MA-HD as obtained in example 1.3 which was impregnated with a solution comprising approximately 10^−2 M of spironolactone in THF, rinsed and lyophilized in accordance with example 1.4 above, • the toxicity of a dry collagen material impregnated with PLGA MC-S obtained from the dehydrated pure collagen material MA-HD as obtained in example 1.3 which was impregnated with a solution comprising approximately 160 mg/ml of PLGA 30-60 kDa in THF, rinsed and lyophilized in accordance with example 1.4, and • the toxicity of a dry pure collagen material MA-S as obtained in example 1.3.
Moreover, C represents a negative control (well containing just the cells without hydrogel). […]

Row | SMILES | production of luciferase (receptor activation) ([1]; aldosterone approximately 10^-8 M alone, conditions (6) versus negative control (5)) | toxicity on cells (in words) ([2]; 1 day and 6 days, compared with control) | cell viability (cells survived) ([2]; first day, relative to negative control C) | production of luciferase (inhibition of aldosterone effect) ([1]; free spironolactone approximately 10^-6 M with aldosterone approximately 10^-8 M, conditions (7))
1 | C[C@]12CCC(=O)C=C1CC[C@@H]1[C@@H]2[C@@H](O)C[C@]2(C=O)[C@@H](C(=O)CO)CC[C@@H]12 [aldosterone] | caused strong transcription |  |  | 
2 | CC(=O)S[C@@H]1CC2=CC(=O)CC[C@]2(C)[C@H]2CC[C@@]3(C)[C@@H](CC[C@@]34CCC(=O)O4)[C@H]12 [spironolactone] |  | slight toxic effect | 74% | the effect of the aldosterone is inhibited
